Laboratory results published in PubChem BioAssay (NCI).
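Where inhibition never reached the appropriate level, the endpoint shown equals the highest concentration tested. Otherwise, values were interpolated linearly from a five-concentration, 48-hour dose response in 96-well plates. GI50 = concentration required for 50% inhibition of growth. The concentration for full growth arrest is given as TGI.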

What was measured:
Experiment in all cases: NCI-60 cell line screen, 48 h
SK-MEL-5 melanoma = test system: SK-MEL-5 melanoma
SW-620 colon = test system: SW-620 colon
NCI-H23 lung = test system: NCI-H23 lung
NCI-H522 lung = test system: NCI-H522 lung
LOX IMVI melanoma = test system: LOX IMVI melanoma
HOP-92 NSCLC = test system: HOP-92 NSCLC
HCT-15 colon = test system: HCT-15 colon
SF-295 CNS = test system: SF-295 CNS
MDA-MB-231 breast = test system: MDA-MB-231 breast
NCI-H460 lung = test system: NCI-H460 lung

| Structure (SMILES) | TGI (SK-MEL-5 melanoma) [µM] | TGI (SW-620 colon) [µM] | TGI (NCI-H23 lung) [µM] | TGI (NCI-H522 lung) [µM] | TGI (LOX IMVI melanoma) [µM] | TGI (HOP-92 NSCLC) [µM] | TGI (HCT-15 colon) [µM] | TGI (SF-295 CNS) [µM] | TGI (MDA-MB-231 breast) [µM] | GI50 (SK-MEL-5 melanoma) [µM] | GI50 (NCI-H460 lung) [µM] | TGI (NCI-H460 lung) [µM] | GI50 (SW-620 colon) [µM] | GI50 (NCI-H23 lung) [µM] | GI50 (NCI-H522 lung) [µM] | GI50 (LOX IMVI melanoma) [µM] | GI50 (HOP-92 NSCLC) [µM] | GI50 (HCT-15 colon) [µM] | GI50 (SF-295 CNS) [µM] | GI50 (MDA-MB-231 breast) [µM] |
| --- | --- | --- | --- | --- | --- | --- | --- | --- | --- | --- | --- | --- | --- | --- | --- | --- | --- | --- | --- | --- |
| CC1(C)CCC[C@]2(C)[C@@H](C=O)C(C=O)=CC[C@@H]12 | 29 | > 100 | 69.5 | 37.4 | 42.2 | 53 | 30.7 | 75.1 | 23.1 | – | – | – | – | – | – | – | – | – | – | – |
| CC1(C)N=C(N)N=C(N)N1c1ccc(CCCCc2ccc(S(=O)(=O)F)cc2)c(Cl)c1 | 12.5 | 14.7 | 19.5 | 16.7 | 15.3 | 26.1 | > 100 | 18.2 | 21.2 | 0.345 | 0.0399 | 12.6 | 0.0527 | 0.363 | 0.419 | 0.0723 | 5.56 | 0.593 | 0.636 | 1.76 |
| CN1CCC(n2cnc(-c3ccc(F)cc3)c2-c2ccnc(N)n2)CC1 | > 25 | > 25 | > 25 | > 25 | > 25 | 24 | > 25 | > 25 | > 25 | 11.6 | 7.01 | > 25 | 5.93 | 10.6 | 8.57 | 6.95 | 3.99 | 10.5 | 9.36 | 13.5 |
| CC(=O)Oc1ccccc1C(=O)/C=C/c1cccc([N+](=O)[O-])c1 | 9.07 | 3.9 | 19.6 | 36.3 | 3.33 | 22.5 | – | 4.16 | 13.5 | 3.03 | 2.4 | 9.4 | 1.87 | 5.09 | 15.3 | 1.56 | 7.91 | – | 1.88 | 3.48 |
| CCN1C(=O)N(CC)C2C1NN=c1s/c(=C\c3ccccc3Br)c(=O)n12 (configuration not stated) | 0.133 | > 54.2 | 29.6 | 1.12 | 16.6 | 44.7 | 12.6 | 15.1 | 11.4 | 0.0319 | 0.0337 | 4.14 | 0.037 | 0.0552 | 0.019 | 0.0284 | 0.37 | 0.0303 | 0.0286 | 0.0347 |
| COC(=O)c1nc(-c2ccccc2)oc1S(=O)(=O)n1nc(C)cc1N | 29.7 | 11.2 | 35.9 | 4.06 | 3.34 | 3.89 | 17.8 | > 100 | 21.8 | 15.5 | 17.6 | 36.3 | 3.22 | 16.7 | 2.06 | 1.51 | 1.73 | 4.51 | 29.7 | 9.03 |
